According to ChEMBL document CHEMBL6177960, “Rational design, optimization, and biological evaluation of novel pyrrolo-pyridone derivatives as potent and orally active Cbl-b inhibitors” (Eur J Med Chem, 2025):

Legend:
[1] = in vivo; conditions: male, CD-1(ICR), mouse, po, 10 mg/kg
Description: Half-life in male CD-1(ICR) mouse at 10 mg/kg, po measured after 1440 mins by LC-MS/MS analysis

[2] = in vivo; conditions: male, CD-1(ICR), mouse, iv, 1 mg/kg
Description: AUCinfinity in male CD-1(ICR) mouse at 1 mg/kg, iv measured after 1440 mins by LC-MS/MS analysis

[3] = in vivo; conditions: male, CD-1(ICR), mouse, po, 10 mg/kg; remark: listed apart in the source
Description: AUClast in male CD-1(ICR) mouse at 10 mg/kg, po measured after 1440 mins by LC-MS/MS analysis

[4] = in vivo; conditions: male, CD-1(ICR), mouse, iv, 1 mg/kg; remark: listed apart in the source
Description: Volume of distribution at steady state in male CD-1(ICR) mouse at 1 mg/kg, iv measured after 1440 mins by LC-MS/MS analysis

[5] = in vivo; conditions: male, CD-1(ICR), mouse, iv, 1 mg/kg; remark: listed apart in the source
Description: C0 in male CD-1(ICR) mouse at 1 mg/kg, iv measured after 1440 mins by LC-MS/MS analysis

[6] = in vivo; conditions: male, CD-1(ICR), mouse, po, 10 mg/kg; remark: listed apart in the source
[7] = in vivo; conditions: male, CD-1(ICR), mouse, iv, 1 mg/kg; remark: listed apart in the source
Description: Half-life in male CD-1(ICR) mouse at 1 mg/kg, iv measured after 1440 mins by LC-MS/MS analysis

[8] = in vivo; conditions: male, CD-1(ICR), mouse, po, 10 mg/kg; remark: listed apart in the source
[9] = in vivo; conditions: male, CD-1(ICR), mouse, iv, 1 mg/kg; remark: listed apart in the source
Description: Clearance in male CD-1(ICR) mouse at 1 mg/kg, iv measured after 1440 mins by LC-MS/MS analysis

[10] = mouse, in vivo, iv, 1 mg/kg, 24 h
[11] = mouse, in vivo, po, 10 mg/kg, 24 h
[12] = in vivo; conditions: male, CD-1(ICR), mouse, po, 10 mg/kg; remark: listed apart in the source
Description: AUCinfinity in male CD-1(ICR) mouse at 10 mg/kg, po measured after 1440 mins by LC-MS/MS analysis

[13] = in vivo; conditions: male, CD-1(ICR), mouse, iv, 1 mg/kg; remark: listed apart in the source
Description: AUClast in male CD-1(ICR) mouse at 1 mg/kg, iv measured after 1440 mins by LC-MS/MS analysis

[14] = in vivo; conditions: male, CD-1(ICR), mouse, po, 10 mg/kg; remark: listed apart in the source
[15] = test system: CT26; assay: Antitumor activity against mouse CT26 cells implanted in female BALB/C mouse model assessed as tumor growth inhibition at 50 mg/kg, po administered via gavage once daily and measured after 14 days relative to control; conditions: 336 h, read-out: TGI
[16] = in vivo; conditions: male, CD-1(ICR), mouse, po, 10 mg/kg; remark: listed apart in the source
Description: MRTinfinity in male CD-1(ICR) mouse at 10 mg/kg, po measured after 1440 mins by LC-MS/MS analysis

[17] = in vivo; conditions: male, CD-1(ICR), mouse, iv, 1 mg/kg; remark: listed apart in the source
Description: Apparent volume of distribution in male CD-1(ICR) mouse at 1 mg/kg, iv measured after 1440 mins by LC-MS/MS analysis

[18] = in vivo; conditions: male, CD-1(ICR), mouse, iv, 1 mg/kg; remark: listed apart in the source
Description: MRTinfinity in male CD-1(ICR) mouse at 1 mg/kg, iv measured after 1440 mins by LC-MS/MS analysis

[19] = test system: 4T1; assay: Antitumor activity against mouse 4T1 cells implanted in female BALB/C mouse model assessed as tumor growth inhibition at 30 mg/kg, po relative to control; conditions: 4T1, po, read-out: TGI
[20] = test system: CT26; assay: Antitumor activity against mouse CT26 cells implanted in female BALB/C mouse model assessed as tumor growth inhibition at 30 mg/kg, po administered via gavage once daily and measured after 14 days relative to control; conditions: 336 h, read-out: TGI
[21] = test system: CT26; assay: Antitumor activity against mouse CT26 cells implanted in female BALB/C mouse model assessed as tumor growth inhibition at 10 mg/kg, po administered via gavage once daily and measured after 14 days relative to control; conditions: 336 h, read-out: TGI
[22] = Protein binding in Beagle dog plasma assessed as unbound fraction at 5 uM incubated for 5 hrs by equilibrium dialysis based LC-MS analysis
[23] = Inhibition of immunosuppressive activity in PGE2-induced human T cells assessed as increase in IL2 production preincubated with PGE2 for 15 mins followed by compound administration for 60 mins and measured after 48 hrs of anti-human CD28 antibody by ELISA; conditions: T-cell
[24] = Plasma protein binding in Sprague-Dawley rat at 5 uM incubated for 5 hrs by equilibrium dialysis based LC-MS analysis
[25] = Plasma protein binding in Beagle dog at 5 uM incubated for 5 hrs by equilibrium dialysis based LC-MS analysis
[26] = in vitro; conditions: dog, hepatocytes
[27] = Plasma protein binding in cynomolgus monkey at 5 uM incubated for 5 hrs by equilibrium dialysis based LC-MS analysis
[28] = in vitro; conditions: dog, hepatocytes; remark: listed apart in the source
[29] = Protein binding in cynomolgus monkey plasma assessed as unbound fraction at 5 uM incubated for 5 hrs by equilibrium dialysis based LC-MS analysis
[30] = Protein binding in CD-1 mouse plasma assessed as unbound fraction at 5 uM incubated for 5 hrs by equilibrium dialysis based LC-MS analysis
[31] = Toxicity in female BALB/C mouse model implanted with mouse CT26 cells assessed as effect on body weight at 30 mg/kg, po administered via gavage once daily and measured after 14 days; conditions: in vivo, 336 h
[32] = in vitro; conditions: rhesus monkey, hepatocytes
[33] = in vitro; conditions: human, hepatocytes
[34] = in vitro; conditions: mouse, hepatocytes
[35] = Inhibition of immunosuppressive activity in PGE2-induced human T cells assessed as increase in cell proliferation preincubated with PGE2 for 15 mins followed by compound administration for 60 mins and measured after 72 hrs of anti-human CD28 antibody by flow cytometric analysis
[36] = Plasma protein binding in CD-1 mouse at 5 uM incubated for 5 hrs by equilibrium dialysis based LC-MS analysis
[37] = Toxicity in female BALB/C mouse model implanted with mouse CT26 cells assessed as body weight gain at 10 mg/kg, po administered via gavage once daily and measured after 14 days; format: organism-based; conditions: in vivo, 336 h, time 14 day
[38] = Protein binding in human plasma assessed as unbound fraction at 5 uM incubated for 5 hrs by equilibrium dialysis based LC-MS analysis
[39] = Protein binding in Sprague-Dawley rat plasma assessed as unbound fraction at 5 uM incubated for 5 hrs by equilibrium dialysis based LC-MS analysis
[40] = Inhibition of immunosuppressive activity in PGE2-induced human T cells assessed as increase in IFNgamma production preincubated with PGE2 for 15 mins followed by compound administration for 60 mins and measured after 48 hrs of anti-human CD28 antibody by ELISA; conditions: T-cell
[41] = in vitro; conditions: rat, hepatocytes
[42] = Plasma protein binding in human at 5 uM incubated for 5 hrs by equilibrium dialysis based LC-MS analysis

C[C@H]1CCCN(Cc2cc3c(C4CC4)cn(-c4cccc([C@]5(c6nncn6C)C[C@@H](C)C5)c4)c(=O)c3[nH]2)C1
half-life at 24 h [1]: 140 min | AUC(0-inf) at 24 h [2]: 205 ng·h/mL | AUC(0-t) at 24 h [3]: 243 ng·h/mL | Vd at 24 h [4]: 3.19 L/kg | C0 at 24 h [5]: 395 ng/mL | Cmax at 24 h [6]: 77.9 ng/mL | half-life at 24 h [7]: 40.8 min | Tmax at 24 h [8]: 120 min | clearance at 24 h [9]: 82.1 mL/min/kg | %AUCextra [10]: 1.18% | %AUCextra [11]: 14.2% | AUC(0-inf) at 24 h [12]: 293 ng·h/mL | AUC(0-t) at 24 h [13]: 202 ng·h/mL | bioavailability at 24 h [14]: 27.2% | inhibition in vivo at 50 mg/kg [15]: 51% | MRT inf at 24 h [16]: 253 min | Vd at 24 h [17]: 4.82 L/kg | MRT inf at 24 h [18]: 39.6 min

C[C@H]1CCCN(Cc2cc3c(C(F)(F)F)cn(-c4cccc([C@]5(c6nncn6C)C[C@@H](C)C5)c4)c(=O)c3[nH]2)C1
half-life at 24 h [1]: 69 min | inhibition in vivo at 30 mg/kg [19]: 31.3% | inhibition in vivo at 30 mg/kg [20]: 56.1% | inhibition in vivo at 10 mg/kg [21]: 12.5% | fraction unbound at 5 h, 5 µM [22]: 0.0394 | EC50 [23]: 65.7 nM | AUC(0-inf) at 24 h [2]: 292 ng·h/mL | fraction unbound at 5 h, 5 µM [24]: 0.0419 | AUC(0-t) at 24 h [3]: 789 ng·h/mL | fraction unbound at 5 h, 5 µM [25]: 0.0394 | Vd at 24 h [4]: 2.91 L/kg | C0 at 24 h [5]: 406 ng/mL | half-life at 2 h, 2 µM [26]: 24.1 min | fraction unbound at 5 h, 5 µM [27]: 0.0179 | Cmax at 24 h [6]: 480 ng/mL | CLint scaled at 2 h, 2 µM [28]: 39.4 mL/min/kg | half-life at 24 h [7]: 55.7 min | Tmax at 24 h [8]: 21.6 min | fraction unbound at 5 h, 5 µM [29]: 0.0179 | clearance at 24 h [9]: 57.8 mL/min/kg | fraction unbound at 5 h, 5 µM [30]: 0.0217 | %AUCextra [10]: 1.2% | Activity [31]: Non-toxic | half-life at 2 h, 2 µM [32]: 12.2 min | half-life at 2 h, 2 µM [33]: 81.8 min | half-life at 2 h, 2 µM [34]: 14.3 min | EC50 [35]: 1.4 nM | fraction unbound at 5 h, 5 µM [36]: 0.0217 | %AUCextra [11]: 0.94% | AUC(0-inf) at 24 h [12]: 796 ng·h/mL | Activity [37]: Toxic | fraction unbound at 5 h, 5 µM [38]: 0.0379 | AUC(0-t) at 24 h [13]: 289 ng·h/mL | bioavailability at 24 h [14]: 27.2% | fraction unbound at 5 h, 5 µM [39]: 0.0419 | MRT inf at 24 h [16]: 89.4 min | EC50 [40]: 170 nM | half-life at 2 h, 2 µM [41]: 40.7 min | fraction unbound at 5 h, 5 µM [42]: 0.0379 | Vd at 24 h [17]: 4.66 L/kg | MRT inf at 24 h [18]: 60.6 min
